Laboratory results taken from US20040009899A1, “Treating dominant disorders” (priority 2002, published 2004).

Test system: non-transgenic mice
Conditions: mouse, in vivo, 0.15 mg/kg
Procedure: Cannulation and microsurgery—Method 2: Pump cannulas were prepared 48 hours before surgery. For adaptation to mice, Alzet pump cannulas were ground to a length of 2 mm. The cannulas then were sterilized by gas ozonation. Mice were anesthetized via i.p. injection with 100 mg/kg of a ketamine/xylazine solution containing 8 mg/mL ketamine and 1 mg/mL xylazine in 0.9% saline. Once anesthetized, each mouse was cannulated. Each anesthetized mouse was placed in a Stoelting Stereotaxic Frame with a mouse adapter (Stoelting Instruments). An incision was made using a scalpel, and the skin and tissue were pulled back with swabs to reveal the skull. The cannulation site was positioned for optimum access to the ventricle, at coordinates AP −0.2 mm, Horiz −1 mm from bregma. A cannula entry port and two bone screw ports were opened in the skull using a Dremel Flex Shaft Drill (Stoelting Instruments) with a 2.1 mm burr. The cannula was lowered into place and affixed using Loctite 454 (Loctite Corp., Avon, Ohio). An Alzet Mini-Osmotic Pump was inserted into a pouch beneath the skin and attached to the cannula with silastic tubing. The wound was closed using wound clips and the animal was allowed to recuperate.
Delivery of PNA oligomer solutions: All handling of tubing and cannulas was done under sterile conditions. […]

HDs: sense PNA oligomer, 14 residues, 5′-GGACTGCCGTGCCG-3′ (SEQ ID NO:3), specific for the expanded human HD allele (all peptide nucleic acid (PNA))
effect of treatment on non-transgenic animals: appeared unaffected
